Key:
[1] = biological target: T1, isocitrate lyase (ICL) (Candida albicans, UniProt Q9P8Q7); experiment: enzyme assay with purified ICL, glyoxylate phenylhydrazone formation at […] nm; type: biochemical
T1 construct: gene ICL1

[2] = biological target: T1, isocitrate lyase (ICL); experiment: positive control in enzyme assay with purified ICL, glyoxylate phenylhydrazone formation at […] nm; type: biochemical

T1 sequence (Q9P8Q7 whole entry): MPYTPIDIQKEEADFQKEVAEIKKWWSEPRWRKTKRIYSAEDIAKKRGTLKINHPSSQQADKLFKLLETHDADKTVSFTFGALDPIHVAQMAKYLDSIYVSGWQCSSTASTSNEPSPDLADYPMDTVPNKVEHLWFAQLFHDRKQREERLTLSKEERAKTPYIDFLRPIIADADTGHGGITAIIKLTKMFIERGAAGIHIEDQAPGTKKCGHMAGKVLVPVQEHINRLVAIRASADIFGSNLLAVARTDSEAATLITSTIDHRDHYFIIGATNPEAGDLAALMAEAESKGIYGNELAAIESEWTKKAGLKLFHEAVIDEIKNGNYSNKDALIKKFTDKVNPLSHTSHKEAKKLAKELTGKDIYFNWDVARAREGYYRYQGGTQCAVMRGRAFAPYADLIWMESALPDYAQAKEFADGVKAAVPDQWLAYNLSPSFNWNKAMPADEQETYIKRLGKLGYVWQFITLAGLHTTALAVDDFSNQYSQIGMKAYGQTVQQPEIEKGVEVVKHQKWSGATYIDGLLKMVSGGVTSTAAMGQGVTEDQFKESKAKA

## C=C[C@@H](O)[C@H](O)/C=C/C=C/C=C/C=C/[C@@H](O)[C@@H](C)O [compound 1, Separacene A]
[1]
  IC50: 172 µM

## O=C(O)CC[N+](=O)[O-] [3-Nitropropionic acid]
[2]
  IC50: 11.3 µM
